# Results: ChEMBL document CHEMBL1671626, “In vitro profiling of ceftaroline against a collection of recent bacterial clinical isolates from across the United States” (2008)
# Experiments:
# Format in all cases: functional
# Streptococcus agalactiae [1] = assay: Antibacterial activity against erythromycin-nonsusceptible Streptococcus agalactiae by CLSI M7-A7 broth microdilution method
# Staphylococcus aureus [2] = assay: Antibacterial activity against coagulase-negative and oxacillin-resistant Staphylococcus aureus by CLSI M7-A7 broth microdilution method
# Staphylococcus aureus [3] = assay: Antibacterial activity against coagulase-negative and oxacillin-susceptible Staphylococcus aureus by CLSI M7-A7 broth microdilution method
# Staphylococcus aureus [4] = assay: Antibacterial activity against coagulase-negative and oxacillin-susceptible Staphylococcus aureus assessed as resistant isolates by CLSI M7-A7 broth microdilution method
# Enterococcus faecalis [5] = assay: Antibacterial activity against vancomycin-resistant Enterococcus faecalis assessed as susceptible isolates by CLSI M7-A7 broth microdilution method
# Staphylococcus aureus [6] = assay: Antibacterial activity against coagulase-negative and oxacillin-resistant Staphylococcus aureus assessed as resistant isolates by CLSI M7-A7 broth microdilution method
# Streptococcus viridans [7] = assay: Antibacterial activity against penicillin-nonsusceptible Streptococcus viridans assessed as susceptible isolates by CLSI M7-A7 broth microdilution method
# Staphylococcus aureus [8] = assay: Antibacterial activity against methicillin-susceptible Staphylococcus aureus assessed as resistant isolates by CLSI M7-A7 broth microdilution method
# Staphylococcus aureus [9] = assay: Antibacterial activity against methicillin-resistant Staphylococcus aureus by CLSI M7-A7 broth microdilution method
# Enterococcus faecalis [10] = assay: Antibacterial activity against vancomycin-susceptible Enterococcus faecalis assessed as resistant isolates by CLSI M7-A7 broth microdilution method
# Enterococcus faecalis [11] = assay: Antibacterial activity against vancomycin-resistant Enterococcus faecalis by CLSI M7-A7 broth microdilution method
# Streptococcus agalactiae [12] = assay: Antibacterial activity against erythromycin-susceptible Streptococcus agalactiae assessed as susceptible isolates by CLSI M7-A7 broth microdilution method
# Enterococcus faecalis [13] = assay: Antibacterial activity against vancomycin-resistant Enterococcus faecalis assessed as resistant isolates by CLSI M7-A7 broth microdilution method
# Streptococcus pneumoniae [14] = assay: Antibacterial activity against penicillin-resistant Streptococcus pneumoniae assessed as susceptible isolates by CLSI M7-A7 broth microdilution method
# Streptococcus viridans [15] = assay: Antibacterial activity against penicillin-susceptible Streptococcus viridans by CLSI M7-A7 broth microdilution method
# Enterococcus faecalis [16] = assay: Antibacterial activity against vancomycin-susceptible Enterococcus faecalis assessed as susceptible isolates by CLSI M7-A7 broth microdilution method
# Enterococcus faecium [17] = assay: Antibacterial activity against vancomycin-resistant Enterococcus faecium assessed as susceptible isolates by CLSI M7-A7 broth microdilution method
# Streptococcus pneumoniae [18] = assay: Antibacterial activity against penicillin-susceptible Streptococcus pneumoniae by CLSI M7-A7 broth microdilution method
# Streptococcus pyogenes [19] = assay: Antibacterial activity against erythromycin-nonsusceptible Streptococcus pyogenes assessed as susceptible isolates by CLSI M7-A7 broth microdilution method
# Streptococcus pneumoniae [20] = assay: Antibacterial activity against penicillin-susceptible Streptococcus pneumoniae assessed as susceptible isolates by CLSI M7-A7 broth microdilution method
# Streptococcus viridans [21] = assay: Antibacterial activity against penicillin-susceptible Streptococcus viridans assessed as susceptible isolates by CLSI M7-A7 broth microdilution method
# Enterococcus faecalis [22] = assay: Antibacterial activity against vancomycin-susceptible Enterococcus faecalis by CLSI M7-A7 broth microdilution method
# Staphylococcus aureus [23] = assay: Antibacterial activity against methicillin-resistant Staphylococcus aureus assessed as resistant isolates by CLSI M7-A7 broth microdilution method
# Streptococcus pyogenes [24] = assay: Antibacterial activity against erythromycin-susceptible Streptococcus pyogenes by CLSI M7-A7 broth microdilution method
# Enterococcus faecium [25] = assay: Antibacterial activity against vancomycin-resistant Enterococcus faecium assessed as resistant isolates by CLSI M7-A7 broth microdilution method
# Streptococcus viridans [26] = assay: Antibacterial activity against penicillin-nonsusceptible Streptococcus viridans by CLSI M7-A7 broth microdilution method
# Streptococcus pneumoniae [27] = assay: Antibacterial activity against penicillin-resistant Streptococcus pneumoniae by CLSI M7-A7 broth microdilution method
# Streptococcus pyogenes [28] = assay: Antibacterial activity against erythromycin-nonsusceptible Streptococcus pyogenes by CLSI M7-A7 broth microdilution method
# Staphylococcus aureus [29] = assay: Antibacterial activity against methicillin-susceptible Staphylococcus aureus by CLSI M7-A7 broth microdilution method
# Streptococcus pyogenes [30] = assay: Antibacterial activity against erythromycin-susceptible Streptococcus pyogenes assessed as susceptible isolates by CLSI M7-A7 broth microdilution method
# Enterococcus faecium [31] = assay: Antibacterial activity against vancomycin-resistant Enterococcus faecium by CLSI M7-A7 broth microdilution method
# Streptococcus agalactiae [32] = assay: Antibacterial activity against erythromycin-susceptible Streptococcus agalactiae by CLSI M7-A7 broth microdilution method
# Streptococcus agalactiae [33] = assay: Antibacterial activity against erythromycin-nonsusceptible Streptococcus agalactiae assessed as susceptible isolates by CLSI M7-A7 broth microdilution method
# Streptococcus viridans [34] = assay: Antibacterial activity against penicillin-susceptible Streptococcus viridans assessed as resistant isolates by CLSI M7-A7 broth microdilution method
# Staphylococcus aureus [35] = assay: Antibacterial activity against methicillin-susceptible Staphylococcus aureus assessed as susceptible isolates by CLSI M7-A7 broth microdilution method
# Moraxella catarrhalis = assay: Antibacterial activity against beta lactamase-positive Moraxella catarrhalis by CLSI M7-A7 broth microdilution method
# Staphylococcus aureus [36] = assay: Antibacterial activity against coagulase-negative and oxacillin-susceptible Staphylococcus aureus assessed as susceptible isolates by CLSI M7-A7 broth microdilution method
# Streptococcus viridans [37] = assay: Antibacterial activity against penicillin-nonsusceptible Streptococcus viridans assessed as resistant isolates by CLSI M7-A7 broth microdilution method
# Pasteurella multocida = assay: Antibacterial activity against Pasteurella multocida by CLSI M7-A7 broth microdilution method
# Staphylococcus aureus [38] = assay: Antibacterial activity against coagulase-negative and oxacillin-resistant Staphylococcus aureus assessed as susceptible isolates by CLSI M7-A7 broth microdilution method
compound,measurement,setting,value
CN[C@H](CC(C)C)C(=O)N[C@H]1C(=O)N[C@@H](CC(N)=O)C(=O)N[C@H]2C(=O)N[C@H]3C(=O)N[C@H](C(=O)N[C@H](C(=O)O)c4cc(O)cc(O)c4-c4cc3ccc4O)[C@H](O)c3ccc(c(Cl)c3)Oc3cc2cc(c3O[C@@H]2O[C@H](CO)[C@@H](O)[C@H](O)[C@H]2O[C@H]2C[C@](C)(N)[C@H](O)[C@H](C)O2)Oc2ccc(cc2Cl)[C@H]1O [VANCOMYCIN],MIC50,Streptococcus agalactiae [1],0.5 µg/mL
same,MIC90,Streptococcus agalactiae [1],0.5 µg/mL
same,MIC50,Staphylococcus aureus [2],1 µg/mL
same,MIC90,Staphylococcus aureus [2],2 µg/mL
same,MIC50,Staphylococcus aureus [3],1 µg/mL
same,MIC90,Staphylococcus aureus [3],2 µg/mL
same,Activity,Staphylococcus aureus [4],0%
same,Activity,Enterococcus faecalis [5],0%
same,Activity,Staphylococcus aureus [6],0%
same,Activity,Streptococcus viridans [7],92.9%
same,Activity,Staphylococcus aureus [8],0%
same,MIC50,Staphylococcus aureus [9],1 µg/mL
same,MIC90,Staphylococcus aureus [9],1 µg/mL
same,Activity,Enterococcus faecalis [10],0%
same,MIC,Enterococcus faecalis [11],> 16 µg/mL
same,MIC50,Enterococcus faecalis [11],> 16 µg/mL
same,MIC90,Enterococcus faecalis [11],> 16 µg/mL
same,Activity,Streptococcus agalactiae [12],100%
same,Activity,Enterococcus faecalis [13],100%
same,Activity,Streptococcus pneumoniae [14],100%
same,MIC50,Streptococcus viridans [15],0.5 µg/mL
same,MIC90,Streptococcus viridans [15],0.5 µg/mL
same,Activity,Enterococcus faecalis [16],100%
same,Activity,Enterococcus faecium [17],0%
same,MIC50,Streptococcus pneumoniae [18],0.25 µg/mL
same,MIC90,Streptococcus pneumoniae [18],0.5 µg/mL
same,Activity,Streptococcus pyogenes [19],100%
same,Activity,Streptococcus pneumoniae [20],100%
same,Activity,Streptococcus viridans [21],100%
same,MIC50,Enterococcus faecalis [22],1 µg/mL
same,MIC90,Enterococcus faecalis [22],2 µg/mL
same,Activity,Staphylococcus aureus [23],0.3%
same,MIC,Streptococcus pyogenes [24],0.25 µg/mL
same,MIC50,Streptococcus pyogenes [24],0.25 µg/mL
same,MIC90,Streptococcus pyogenes [24],0.5 µg/mL
same,Activity,Enterococcus faecium [25],100%
same,MIC,Streptococcus viridans [26],0.5 µg/mL
same,MIC50,Streptococcus viridans [26],0.5 µg/mL
same,MIC90,Streptococcus viridans [26],1 µg/mL
same,MIC50,Streptococcus pneumoniae [27],0.25 µg/mL
same,MIC90,Streptococcus pneumoniae [27],0.5 µg/mL
same,MIC,Streptococcus pyogenes [28],0.25 µg/mL
same,MIC50,Streptococcus pyogenes [28],0.25 µg/mL
same,MIC90,Streptococcus pyogenes [28],0.5 µg/mL
same,MIC50,Staphylococcus aureus [29],0.5 µg/mL
same,MIC90,Staphylococcus aureus [29],1 µg/mL
same,Activity,Streptococcus pyogenes [30],100%
same,MIC,Enterococcus faecium [31],> 16 µg/mL
same,MIC50,Enterococcus faecium [31],> 16 µg/mL
same,MIC90,Enterococcus faecium [31],> 16 µg/mL
same,MIC50,Streptococcus agalactiae [32],0.5 µg/mL
same,MIC90,Streptococcus agalactiae [32],0.5 µg/mL
same,Activity,Streptococcus agalactiae [33],100%
CC(=O)NC[C@H]1CN(c2ccc(N3CCOCC3)c(F)c2)C(=O)O1 [LINEZOLID],MIC50,Streptococcus agalactiae [1],1 µg/mL
same,MIC90,Streptococcus agalactiae [1],1 µg/mL
same,MIC50,Staphylococcus aureus [2],1 µg/mL
same,MIC90,Staphylococcus aureus [2],2 µg/mL
same,MIC50,Staphylococcus aureus [3],1 µg/mL
same,MIC90,Staphylococcus aureus [3],2 µg/mL
same,Activity,Streptococcus viridans [7],100%
same,MIC50,Staphylococcus aureus [9],2 µg/mL
same,MIC90,Staphylococcus aureus [9],2 µg/mL
same,Activity,Enterococcus faecalis [10],0%
same,MIC50,Enterococcus faecalis [11],2 µg/mL
same,MIC90,Enterococcus faecalis [11],2 µg/mL
same,Activity,Streptococcus agalactiae [12],100%
same,Activity,Enterococcus faecalis [13],0%
same,MIC50,Streptococcus viridans [15],1 µg/mL
same,MIC90,Streptococcus viridans [15],1 µg/mL
same,Activity,Enterococcus faecalis [16],100%
same,Activity,Enterococcus faecium [17],100%
same,Activity,Streptococcus viridans [34],0%
same,Activity,Staphylococcus aureus [35],100%
same,MIC50,Moraxella catarrhalis,4 µg/mL
same,MIC90,Moraxella catarrhalis,4 µg/mL
same,Activity,Streptococcus pyogenes [19],100%
same,Activity,Streptococcus pneumoniae [20],100%
same,Activity,Streptococcus viridans [21],100%
same,MIC50,Enterococcus faecalis [22],2 µg/mL
same,MIC90,Enterococcus faecalis [22],2 µg/mL
same,MIC50,Streptococcus pyogenes [24],1 µg/mL
same,MIC90,Streptococcus pyogenes [24],1 µg/mL
same,Activity,Enterococcus faecium [25],0%
same,Activity,Staphylococcus aureus [36],100%
same,Activity,Streptococcus viridans [37],0%
same,MIC50,Streptococcus viridans [26],1 µg/mL
same,MIC90,Streptococcus viridans [26],1 µg/mL
same,MIC50,Pasteurella multocida,4 µg/mL
same,MIC90,Pasteurella multocida,> 4 µg/mL
same,MIC,Streptococcus pyogenes [28],1 µg/mL
same,MIC50,Streptococcus pyogenes [28],1 µg/mL
same,MIC90,Streptococcus pyogenes [28],1 µg/mL
same,Activity,Staphylococcus aureus [38],99.3%
same,MIC50,Staphylococcus aureus [29],2 µg/mL
same,MIC90,Staphylococcus aureus [29],2 µg/mL
same,Activity,Streptococcus pyogenes [30],100%
same,MIC50,Enterococcus faecium [31],2 µg/mL
same,MIC90,Enterococcus faecium [31],2 µg/mL
same,MIC,Streptococcus agalactiae [32],1 µg/mL
same,MIC50,Streptococcus agalactiae [32],1 µg/mL
same,MIC90,Streptococcus agalactiae [32],1 µg/mL
same,Activity,Streptococcus agalactiae [33],100%
